Assay [1] concerns the target T1, WT STING (Homo sapiens, UniProt Q86WV6, H232R). In words: 293T WT STING standard reporter assay. The class given is cell-based. Also noted: host or cells: 293T (ATCC CRL-3216), stably transfected. The conditions noted are these: 293T wtSTING-FL cells, no digitonin, 7 h incubation, luciferase reporter. On the procedure: After 5 minutes incubation at room temperature (RT), 250 μL of the mixture was added dropwise to the cells in one well. Cells were incubated 36 hours at 37° C. with 5% CO2, and then detached with 0.05% Trypsin and 0.22 g/L EDTA (both cat. #L0941, Biowest, Riverside, USA).
Transfected cells were seeded onto poly-D-lysine coated six well plates at density 50,000 cells per 1 cm^2 in DMEM medium with high glucose containing 10% heat inactivated FBS, 30 μg/mL blasticidin (cat. #ant-b1-05, InvivoGen, San Diego, USA), 0.06 mg/ml Penicillin G and 0.1 mg/ml Streptomycin Sulfate (both cat. #. L0018, Biowest, Riverside, USA). The medium was replenished every 3-4 days until visible colonies of cells resistant to blasticidin were formed.
Blasticidin resistant cells stably expressing WT STING were further transfected with […] plasmid following the same procedure as described above. […] Homogeneous culture of stably double transfected cells was prepared by limiting dilution of cells in 96 well plates and wells with cells were selected that originated from a single cell.
The medium was removed next day and three-fold serial dilutions of compounds in 100 μl medium were added to the cells. The plates with cells were incubated for 7 hours at 37° C. with 5% CO2. After 50 μl of the medium was removed, 30 μl of ONE-Glo™ Luciferase Assay System reagent (cat. #E6120, Promega, Madison, USA) was added to each well and luminescence was read on Synergy H1 (Biotek, Winooski, USA). […] (cat. #tlrl-nacga23), and 2′2′-cGAMP (cat. #tlrl-nacga22) were purchased from Invivogen (San Diego, USA).
Target sequence in this assay (Q86WV6 whole entry H232R): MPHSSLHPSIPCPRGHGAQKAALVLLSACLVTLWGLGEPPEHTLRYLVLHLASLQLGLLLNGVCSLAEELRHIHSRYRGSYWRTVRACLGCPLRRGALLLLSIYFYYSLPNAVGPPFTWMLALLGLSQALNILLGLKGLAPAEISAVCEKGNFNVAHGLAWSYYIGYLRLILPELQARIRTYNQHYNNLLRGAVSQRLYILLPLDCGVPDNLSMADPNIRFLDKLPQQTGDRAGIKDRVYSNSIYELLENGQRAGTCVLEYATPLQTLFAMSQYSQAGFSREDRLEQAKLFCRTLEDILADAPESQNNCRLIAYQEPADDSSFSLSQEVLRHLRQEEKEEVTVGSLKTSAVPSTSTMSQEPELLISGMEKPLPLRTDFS

For assay [2], the target named is T1, WT STING. In words: Differential scanning fluorimetry with WT STING. It counts as binding. Also noted: truncated human WT STING or AQ STING (amino acid residues 140-343); 8xHis (N, cleaved yes); SUMO (N, cleaved yes); made in house; host or cells: E. coli Rosetta-gami B (DE3). The conditions noted are these: thermal shift, truncated human WT STING 0.1 mg/ml, 150 μM CDN; for ΔTm at 150 µM: read-out: DSF ΔTm WT STING. An excerpt:
Both WT and AQ human STING (G230A-R293Q) cDNA were amplified by the use of PCR (Phusion® High-Fidelity DNA Polymerase, cat. #M0530S, NEB, Ipswich, USA) using oligonucleotides hSTING140-BamH-For ([…]) (SEQ ID NO:5) and hSTING379-Not-Rev3 ([…]) (SEQ ID NO:6) from pUNO1-hSTING-WT (cat. #puno1-hstingwt, InvivoGen, San Diego, USA) and pUNO1-hSTING-HAQ plasmids (punol-hsting-haq, InvivoGen, San Diego, USA). Purified PCR products were cleaved with restriction enzymes BamHI (cat. #R0136S, NEB, Ipswich, USA) and Notl (cat. #R0189S, NEB, Ipswich, USA) and cloned into the pSUMO vector linearized with the identical enzymes. Plasmid pSUMO was created by introducing 8-His-SUMO sequence between Ndel and BamHI sites of pHis-parallel2 plasmid (Clontech, Moutain View, USA). pSUMO-STING WT or pSUMO-STING AQ plasmids thus encoded truncated human WT STING or AQ STING (amino acid residues 140-343) with N-terminal 8xHis and SUMO tag.
The recombinant WT STING and AQ STING proteins were overexpressed in Rosetta-gami B (DE3) competent cells (cat. #71136-3, Merck Millipore, Billerica, USA). Bacterial pellets were re-suspended in ice-cold lysis buffer containing 50 mmol·l^−1 TrisCl (cat. #T1503, Sigma Aldrich, Czech Republic) pH 8.0, 300 mmol·l^−1 NaCl, 3 mmol·l^−1 β-mercaptoethanol (cat. #M6250, Sigma Aldrich, Czech Republic), 10% glycerol (cat. #G5516, Sigma Aldrich, Czech Republic) and 20 mmol·l^−1 imidazole (cat. #15513, Sigma Aldrich, Czech Republic) using Dounce homogenizer. DNase I (cat. #D5025, Sigma Aldrich, Czech Republic) and RNase A (cat. #R6513, Sigma Aldrich, Czech Republic) were added (final concentration 50 μg/ml) together with MgCl2 (final concentration 5 mmol·l^−1) to the homogenate and bacteria were lysed using French Press G-M™ High-Pressure Cell Press Homogenizer (1500 psi, 3 cycles). Lysate was spun 30,000 g for 20 minutes and supernatant was gently stirred with Ni-NTA resin (cat. #745400.25 Macherey-Nagel, Duren, Germany) for 30 minutes. The resin was poured into a chromatography column, washed with 50 ml buffer A (50 mmol·l^−1 TrisCl (pH 8.0), 800 mmol·l^−1 NaCl, 3 mmol·l^−1 (3-mercaptol; 10% glycerol; 20 mmol·l^−1 imidazole) and 8-His-SUMO tagged STING proteins were eluted with 15 ml buffer A containing 300 mmol·l^−1 imidazole. The eluted proteins were cleaved with recombinant SUMO protease (80 μg/ml of protein solution, cat. #12588018, ThermoFisher, Waltham, USA). The proteins were further purified by size exclusion chromatography using HiLoad 16/60 Superdex 75 (cat. #28989333, GE Healthcare Bio-Sciences, Pittsburgh, USA) in 50 mmol·l^−1 Tris Cl buffer pH 7.4 containing 150 mmol·l^−1 NaCl, and 10% glycerol. Proteins were concentrated with Amicon® Ultra-15 10 K device (cat. #UFC901008, Merck Millipore, Billerica, USA) and flash frozen in liquid N2.
WT and AQ allelic forms of STING protein were diluted to the final concentration 0.1 mg/ml in 100 mmol·l^−1 TrisCl buffer pH 7.4 containing, 150 mmol·l^−1 NaCl, 1:500 SYPRO Orange (cat. #S6650, ThermoFisher, Waltham, USA) and 150 μM CDN or water. 20 μL solutions of the reaction mixtures were pipetted in triplicates into 96 well optical reaction plates and thermal denaturation of samples were performed on real time PCR cycler (LightCycler® 480 Instrument II—Roche, Basel, Switzerland). The first derivative of the thermal denaturation curves was performed to calculate denaturing temperatures of STING—CDN complexes and STING apoproteins. The thermal shift for each CDN was calculated by subtracting the average denaturing temperature of STING apoprotein from the average denaturing temperature of STING CDN complex.
Target sequence in this assay (Q86WV6 140-343 H232R): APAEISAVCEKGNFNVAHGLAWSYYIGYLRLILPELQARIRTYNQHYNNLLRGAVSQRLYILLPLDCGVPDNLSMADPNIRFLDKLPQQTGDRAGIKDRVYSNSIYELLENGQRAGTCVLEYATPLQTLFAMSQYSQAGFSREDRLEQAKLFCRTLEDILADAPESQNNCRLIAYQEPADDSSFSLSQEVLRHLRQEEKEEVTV

One may read the EC50 as the concentration needed to bring the measured effect to its halfway point. Broadly, the ΔTm is the shift of the melting midpoint relative to a reference. For the compound `Nc1ncnc2c1ncn2[C@@H]1CO[C@@H]2COP(=O)(S)O[C@H]3[C@@H](F)[C@H](n4cnc5c(N)ncnc54)O[C@@H]3COP(=O)(S)O[C@@H]12` (stereo partly drawn) [Compound 54, (1S,6R,8R,9R,10R,15R,18R)-8,18-bis(6-amino-9H-purin-9-yl)-9-fluoro-3,12-disulfanyl-2,4,7,11,13,16-hexaoxa-3λ^5,12λ^5-diphosphatricyclo[13.3.0.0^6,10]octadecane-3,12-dione], the EC50 on WT STING [1] came to 156 nM. At WT STING [2], the ΔTm at 150 µM came out at 8.5 °C. `Nc1nc2c(ncn2[C@@H]2CO[C@@H]3COP(=O)(O)O[C@H]4C[C@H](n5cnc6c(N)ncnc65)O[C@@H]4COP(=O)(O)O[C@@H]23)c(=O)[nH]1` [Compound 53, (1S,6R,8R,10S,15R,18R)-18-(2-amino-6-oxo-6,9-dihydro-1H-purin-9-yl)-8-(6-amino-9H-purin-9-yl)-3,12-dihydroxy-2,4,7,11,13,16-hexaoxa-3λ^5,12λ^5-diphosphatricyclo[13.3.0.0^6,10]octadecane-3,12-dione]: on WT STING [2], the ΔTm at 150 µM came to 2.9 °C. `Nc1ncnc2c1ncn2[C@@H]1CO[C@@H]2COP(=O)(O)O[C@H]3C[C@H](n4cnc5c(N)ncnc54)O[C@@H]3COP(=O)(O)O[C@@H]12` [Compound 50, (1S,6R,8R,10S,15R,18R)-8,18-bis(6-amino-9H-purin-9-yl)-3,12-dihydroxy-2,4,7,11,13,16-hexaoxa-3λ^5,12λ^5-diphosphatricyclo[13.3.0.0^6,10]octadecane-3,12-dione]: the ΔTm at 150 µM on WT STING [2] turned out to be 1.8 °C. Regarding `Nc1nc2c(ncn2[C@@H]2CO[C@@H]3COP(=O)(O)O[C@H]4[C@H](n5cnc6c(N)ncnc65)CO[C@@H]4COP(=O)(O)O[C@@H]23)c(=O)[nH]1` [Compound 52, (1S,6R,9R,10S,15R,18R)-9-(2-amino-6-oxo-6,9-dihydro-1H-purin-9-yl)-18-(6-amino-9H-purin-9-yl)-3,12-dihydroxy-2,4,7,11,13,16-hexaoxa-3λ^5,12λ^5-diphosphatricyclo[13.3.0.0^6,10]octadecane-3,12-dione], the ΔTm at 150 µM on WT STING [2] is 2.4 °C. Turning to `Nc1ncnc2c1ncn2[C@@H]1CC[C@@H]2COP(=O)(O)O[C@H]3[C@@H](F)[C@H](n4cnc5c(N)ncnc54)O[C@@H]3COP(=O)(O)O[C@H]21` [Compound 34, (1R,6R,8R,9R,10R,15R,18R)-8,18-bis(6-amino-9H-purin-9-yl)-9-fluoro-3,12-dihydroxy-2,4,7,11,13-pentaoxa-3λ^5,12λ^5-diphosphatricyclo[13.3.0.0^6,10]octadecane-3,12-dione], on WT STING [2], the ΔTm at 150 µM is 1.6 °C.

Regarding `Nc1ncnc2c1ncn2[C@@H]1CO[C@@H]2COP(=O)(S)O[C@H]3[C@@H](F)[C@H](n4cnc5c(N)ncnc54)O[C@@H]3COP(=O)(S)O[C@@H]12` (stereo partly drawn) [Compound 55, (1S,6R,8R,9R,10R,15R,18R)-8,18-bis(6-amino-9H-purin-9-yl)-9-fluoro-3,12-disulfanyl-2,4,7,11,13,16-hexaoxa-3λ^5,12λ^5-diphosphatricyclo[13.3.0.0^6,10]octadecane-3,12-dione], on WT STING [1], the EC50 came to 340 nM. The “DSF ΔTm WT STING” value at WT STING [2] stood at 11.0 °C. Take `Nc1nc2c(ncn2[C@@H]2O[C@@H]3COP(=O)(O)O[C@H]4[C@H](n5cnc6c(N)ncnc65)CO[C@@H]4COP(=O)(O)O[C@H]3[C@H]2F)c(=O)[nH]1` [Compound 24, (1S,6R,8R,9R,10R,15R,18R)-8-(2-amino-6-oxo-6,9-dihydro-1H-purin-9-yl)-18-(6-amino-9H-purin-9-yl)-9-fluoro-3,12-dihydroxy-2,4,7,11,13,16-hexaoxa-3λ^5,12λ^5-diphosphatricyclo[13.3.0.0^6,10]octadecane-3,12-dione]: the ΔTm at 150 µM on WT STING [2] was found to be 8.5 °C. Same read-out and setting: the figure for `Nc1ncnc2c1ncn2[C@@H]1CO[C@@H]2COP(=O)(O)O[C@H]3[C@@H](F)[C@H](n4cnc5c(N)ncnc54)O[C@@H]3COP(=O)(O)O[C@@H]12` [Compound 28, (1S,6R,8R,9R,10R,15R,18R)-8,18-bis(6-amino-9H-purin-9-yl)-9-fluoro-3,12-dihydroxy-2,4,7,11,13,16-hexaoxa-3λ^5,12λ^5-diphosphatricyclo[13.3.0.0^6,10]octadecane-3,12-dione] is 5.6 °C. As for `Nc1nc2c(ncn2[C@@H]2CO[C@@H]3COP(=O)(O)O[C@H]4[C@@H](F)[C@H](n5cnc6c(N)ncnc65)O[C@@H]4COP(=O)(O)O[C@@H]23)c(=O)[nH]1` [Compound 51, (1S,6R,8R,9R,10R,15R,18R)-18-(2-amino-6-oxo-6,9-dihydro-1H-purin-9-yl)-8-(6-amino-9H-purin-9-yl)-9-fluoro-3,12-dihydroxy-2,4,7,11,13,16-hexaoxa-3λ^5,12λ^5-diphosphatricyclo[13.3.0.0^6,10]octadecane-3,12-dione], the ΔTm at 150 µM on WT STING [2] was found to be 6.8 °C.

The values are drawn from patent US20240166681A1, “3'3' CYCLIC DINUCLEOTIDES CONTAINING ISONUCLEOTIDIC UNITS” (INSTITUTE OF ORGANIC CHEMISTRY AND BIOCHEMISTRY AS CR, V. …, priority 2021, published 2024).
